In patent US12324798B1, “Leonurine nanocomposite hydrogel and preparation methods and applications thereof” (WEST CHINA HOSPITAL OF SICHUAN UNIVERSITY, priority 2023, dated 2025):

Tested on: LPS-stimulated Raw264.7 cells
Assay: Western blotting of pro-inflammatory cytokines
Format: cell-based
Details: WB; co-culture with LPS-stimulated Raw264.7 cells for 2 days; vs LPS
Procedure: In some embodiments, to assess whether M1 macrophage-targeted FA-PDA nanocarriers enhance the efficiency of anti-inflammatory therapy with loaded Leon, FA-PDA@Leon was co-cultured with LPS-stimulated Raw264.7 cells for 2 days, after which western blotting (WB) analysis was performed. A first group (Group 1) in FIG. 4G to FIG. 4J represents the control group (NC), a second group (Group 2) represents the LPS treatment, a third group (Group 3) represents the LPS and Leon co-treatment, a fourth group (Group 4) represents the LPS and PDA co-treatment, the fifth group (Group 5) represents the LPS and PDA@Leon co-treatment, and a sixth group (Group 6) indicates the LPS and FA-PDA@Leon co-treatment.

COc1cc(C(=O)OCCCCNC(=N)N)cc(OC)c1O [Leon, leonurine]
protein expression of pro-inflammatory cytokines (iNOS, IL-13, IL-6, TNF-α): down-regulated
